Assays:
[1] = target: T1, glucagon receptor (Rattus norvegicus, UniProt P30082); test: Glucagon saturation binding in liver plasma membranes; design: species or system Zucker rat
T1 construct: from tissue; host or cells: liver plasma membranes of lean and fatty (fa/fa) Zucker rats
Protocol: (§1) Experimental Animal Protocol. Lean (+/?) and fatty (fa/fa) Zucker rats were obtained from Harlan Labs at seven weeks of age and randomly assigned to two groups within each phenotype. One group was injected subcutaneously with PP (Peninsula Labs (Belmont, Calif.) (200 μg/day/kg body weight) in a vehicle of physiological saline (0.9% w/v) while the other group was injected with only vehicle. The two groups within each phenotype received their respective treatments for five days, after which the animals were weighed and sacrificed following an overnight fast. Blood samples were obtained from each animal for assays of plasma glucose and insulin according to standard methods known in the art (3) and the pancreas was removed and subjected to an acid-ethanol extraction (0.1N HCl, 70% ethanol) as described previously for assay of pancreatic insulin (3). Livers were removed into ice cold balanced salt solution. […]
Binding curves were analyzed using nonlinear least squares.

[2] = target: T1, glucagon receptor; test: Glucagon competition binding in liver plasma membranes (50 pM labeled glucagon, with and without GTP); design: species or system Zucker rat
[3] = tested on: G proteins migrating at 41 kDa in liver plasma membranes; test: Receptor dependent labeling of hepatocyte G proteins with AA-[32P]GTP; format: biochemical
Protocol: Receptor dependent labeling of hepatocyte G proteins with 4-Azidoanilido-α[^32 P]GTP. The protocol for labeling G proteins with AA-GTP was as described previously (11). The AA-[32P]-GTP used in the labeling experiments was prepared according to the protocol of Offermans et al. (6,7).
The purpose of these labeling studies was to determine whether PP stimulated the binding of AA-[^32 P]GTP to proteins migrating at the known molecular weight of G proteins in liver plasma membranes. […] Incubation of liver plasma membranes with 1 μM angiotensin II produced a two-fold increase in labeling of G protein(s) migrating at 41 kDa on SDS PAGE gels The 41 kDa band represents the pertussis-sensitive G protein family that is expressed in hepatocytes and which couples to angiotensin II receptors.

[4] = tested on: adenylyl cyclase; test: Adenylyl cyclase assay in liver plasma membranes; format: biochemical, Zucker rat; settings: for effect of PP treatment on efficacy of glucagon in activating adenylyl cyclase: PP 200 μg/day/kg s.c. five days
Protocol: Lean (+/?) and fatty (fa/fa) Zucker rats were obtained from Harlan Labs at seven weeks of age and randomly assigned to two groups within each phenotype. One group was injected subcutaneously with PP (Peninsula Labs (Belmont, Calif.) (200 μg/day/kg body weight) in a vehicle of physiological saline (0.9% w/v) while the other group was injected with only vehicle. The two groups within each phenotype received their respective treatments for five days, after which the animals were weighed and sacrificed following an overnight fast. Blood samples were obtained from each animal for assays of plasma glucose and insulin according to standard methods known in the art (3) and the pancreas was removed and subjected to an acid-ethanol extraction (0.1N HCl, 70% ethanol) as described previously for assay of pancreatic insulin (3). Livers were removed into ice cold balanced salt solution. After cooling, each liver was cleaned of connective tissue and minced into 2-4 mm pieces with scissors in 5 ml of ice-cold homogenizing buffer (50 mM Hepes, pH 6.5, 5 mM EDTA, 3 mM orthophenanthroline, 0.2 μM iodoacetic acid, 1 mM PMSF, 25 μm leupeptin (3). The minced liver was homogenized in a 40 ml Dounce homogenizer in 25 ml of homogenizing buffer with 25 strokes of the loose pestle and three strokes of the tight pestle. The homogenate was centrifuged for five minutes at 3000×g. The supernatant was removed and centrifuged for 20 min at 16,000×g. The resulting pellet was retained, resuspended in phosphate buffered saline (PBS) containing 5 mM MgCl2 and homogenized with five strokes of the Dounce homogenizer. After centrifuging for 20 min at 16,000×g, the membrane pellet was resuspended in homogenizing buffer containing 0.1% bovine serum albumin (BSA). Aliquots were frozen in liquid nitrogen and stored at -80° C.
Adenylyl cyclase activity leading to the production of cAMP was determined in liver plasma membranes by methods previously described (2, 4). […] Cyclic AMP formed in the reaction was measured in the supernatant by radioimmunoassay according to methods described previously (2, 4). […]

[5] = tested on: Gs α; test: Western blot assay of Gs α in liver plasma membranes; format: in vivo, Zucker rat; settings: PP 200 μg/day/kg s.c. five days
Protocol: as §1, with “(3).” for “(3). Livers were removed into ice cold balanced salt solution.”
Purified liver plasma membranes were solubilized on ice for one hour in 20 mM Tris, 1 mM EDTA, 1 mM DTT, 100 mM NaCl and 0.9% sodium cholate (pH 8.0). […] Following the procedure of Mumby (20), the PVDF membranes were probed with Gs α IgG and the bands were detected with ^125 I-labeled goat anti-rabbit IgG (1.0×10^6 cpm/ml). […]
In performing the Western blot assays, protein was carefully measured in the liver plasma membrane supernatant to assure that equal amounts of soluble membrane protein would be loaded from the respective treatment groups.

T1 sequence (P30082 27-485): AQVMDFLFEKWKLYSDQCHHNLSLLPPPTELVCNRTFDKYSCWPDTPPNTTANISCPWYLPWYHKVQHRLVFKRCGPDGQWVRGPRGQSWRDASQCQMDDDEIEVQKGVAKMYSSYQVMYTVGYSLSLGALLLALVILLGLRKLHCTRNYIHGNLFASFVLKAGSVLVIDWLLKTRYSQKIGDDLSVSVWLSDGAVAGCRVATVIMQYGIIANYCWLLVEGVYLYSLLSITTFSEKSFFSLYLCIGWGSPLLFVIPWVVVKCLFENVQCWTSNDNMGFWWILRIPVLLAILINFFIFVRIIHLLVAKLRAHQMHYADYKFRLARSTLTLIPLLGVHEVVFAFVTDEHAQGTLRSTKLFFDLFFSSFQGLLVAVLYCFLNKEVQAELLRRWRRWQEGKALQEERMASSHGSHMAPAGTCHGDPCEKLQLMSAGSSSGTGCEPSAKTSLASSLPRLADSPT

increase in AA-[32P]GTP labeling of G protein(s) migrating at 41 kDa ([3]; 1 μM)	Compound	effect of PP treatment on total glucagon binding sites ([1]; either phenotype (lean and fatty Zucker rats), PP 200 μg/day/kg s.c. five days)	Bmax, total glucagon binding sites ([1]; liver membranes of fatty Zucker rats treated with PP 200 μg/day/kg s.c. for five days) [fmol/mg]	percentage of high affinity glucagon binding sites ([2]; fatty Zucker rats treated with PP for five days) [%]	percentage of high affinity glucagon binding sites ([2]; lean Zucker rats treated with PP for five days) [%]	labeling of G proteins migrating at 41 kDa, result in words [3]	maximal increase in AA-[32P]GTP labeling of G proteins migrating at 41 kDa ([3]; maximal effect)	effect of PP treatment on efficacy of glucagon in activating adenylyl cyclase ([4]; fatty Zucker rats)	effect of PP treatment on efficacy of glucagon in activating adenylyl cyclase ([4]; lean Zucker rats)	maximal adenylyl cyclase activation by glucagon ([4]; second replicate, PP treated fatty Zucker rats (200 μg/day/kg s.c., five days)) [pmol cAMP/min/mg]	effect of PP treatment on hepatic Gs α expression ([5]; fatty Zucker rats)	effect of PP treatment on hepatic Gs α expression ([5]; lean Zucker rats)
–	CC[C@H](C)[C@H](NC(=O)[C@H](Cc1ccc(O)cc1)NC(=O)[C@H](CCCNC(=N)N)NC(=O)[C@H](CCCNC(=N)N)NC(=O)[C@H](CC(C)C)NC(=O)[C@H](CC(=O)O)NC(=O)[C@H](C)NC(=O)[C@H](C)NC(=O)[C@H](Cc1ccc(O)cc1)NC(=O)[C@H](CCC(N)=O)NC(=O)[C@H](C)NC(=O)[C@H](CCSC)NC(=O)[C@H](CCC(N)=O)NC(=O)[C@H](CCC(=O)O)NC(=O)[C@@H]1CCCN1C(=O)[C@@H](NC(=O)[C@H](C)NC(=O)[C@H](CC(N)=O)NC(=O)[C@H](CC(=O)O)NC(=O)CNC(=O)[C@@H]1CCCN1C(=O)[C@H](Cc1ccc(O)cc1)NC(=O)[C@@H](NC(=O)[C@@H]1CCCN1C(=O)[C@H](CCC(=O)O)NC(=O)[C@H](CC(C)C)NC(=O)[C@@H]1CCCN1C(=O)[C@H](C)N)C(C)C)[C@@H](C)O)C(=O)N[C@@H](CC(N)=O)C(=O)N[C@@H](CCSC)C(=O)N[C@@H](CC(C)C)C(=O)N[C@H](C(=O)N[C@@H](CCCNC(=N)N)C(=O)N1CCC[C@H]1C(=O)N[C@@H](CCCNC(=N)N)C(=O)N[C@@H](Cc1ccc(O)cc1)C(N)=O)[C@@H](C)O [PP]	failed to alter total glucagon binding sites	569 ± 45	71	55	concentration-dependent increase in labeling	approximately two-fold	significant decrease in the efficacy of glucagon	did not modify the efficacy of glucagon	60.2±1.5	decreased hepatic expression of Gs α to levels similar to that seen in lean rats	not altered
two-fold	angiotensin II (DRVYIHPF; Angiotensin-2; UniProt P01019 25-32, looked up) [positive control that couples to pertussis-sensitive G proteins, reference compound]	–	–	–	–	–	–	–	–	–	–	–
